Reference: the supplement of paper PMC5908809

Tests used:
[1] = tested on: normal NK cells expanded with K562-aAPC; assay: percent inhibition of viability; higher = more inhibition; details: 72 h, IL-2 2.5 ng/mL
Experimental: (§1)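 Drug sensitivity and resistance testing on K562-aAPC-expanded normal NK cells: 5 concentrations (10-fold steps over a 10,000-fold range), 72 h at 37 °C, viability by CellTiter-Glo normalised to DMSO and benzethonium chloride controls; DSS from the fitted curve.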

[2] = tested on: DERL-7 (IL-2 2.5 ng/mL); assay: as above; details: 72 h
[3] = tested on: IMC-1 (IL-2 20 ng/mL); assay: as above; details: 72 h
[4] = tested on: KAI3 (IL-2 2.5 ng/mL); assay: as above; details: 72 h
[5] = tested on: KHYG-1 (IL-2 2.5 ng/mL); assay: as above; details: 72 h
[6] = tested on: NK-92 (IL-2 2.5 ng/mL); assay: as above; details: 72 h
[7] = tested on: NK-YS (IL-2 2.5 ng/mL); assay: as above; details: 72 h
[8] = tested on: NKL (IL-2 2.5 ng/mL); assay: as above; details: 72 h
[9] = tested on: SNK-6 (IL-2 2.5 ng/mL); assay: as above; details: 72 h
[10] = tested on: YT (IL-2 2.5 ng/mL); assay: as above; details: 72 h
[11] = tested on: normal primary NK cells, pool 1 (3 donors) (IL-2 2.5 ng/mL); assay: as above; details: 72 h
[12] = tested on: normal primary NK cells, pool 1 (3 donors), resting (IL-2 0 ng/mL); assay: as above; details: 72 h
[13] = tested on: normal primary NK cells, pool 2 (3 donors) (IL-2 2.5 ng/mL); assay: as above; details: 72 h
[14] = tested on: normal primary NK cells, pool 3 (3 donors) (IL-2 2.5 ng/mL); assay: as above; details: 72 h
[15] = tested on: normal NK cells expanded with K562-aAPC; assay: drug sensitivity score (DSS) (DSS units); higher = more sensitive; extreme values may be limits of the assay; details: 72 h; IL-2 2.5 ng/mL
Experimental: as §1

[16] = tested on: DERL-7 (IL-2 2.5 ng/mL); assay: as above; details: 72 h
[17] = tested on: IMC-1 (IL-2 20 ng/mL); assay: as above; details: 72 h
[18] = tested on: KAI3 (IL-2 2.5 ng/mL); assay: as above; details: 72 h
[19] = tested on: KHYG-1 (IL-2 2.5 ng/mL); assay: as above; details: 72 h
[20] = tested on: NK-92 (IL-2 2.5 ng/mL); assay: as above; details: 72 h
[21] = tested on: NK-YS (IL-2 2.5 ng/mL); assay: as above; details: 72 h
[22] = tested on: NKL (IL-2 2.5 ng/mL); assay: as above; details: 72 h
[23] = tested on: SNK-6 (IL-2 2.5 ng/mL); assay: as above; details: 72 h
[24] = tested on: YT (IL-2 2.5 ng/mL); assay: as above; details: 72 h
[25] = tested on: normal primary NK cells, pool 1 (3 donors) (IL-2 2.5 ng/mL); assay: as above; details: 72 h
[26] = tested on: normal primary NK cells, pool 1 (3 donors), resting (IL-2 0 ng/mL); assay: as above; details: 72 h
[27] = tested on: normal primary NK cells, pool 2 (3 donors) (IL-2 2.5 ng/mL); assay: as above; details: 72 h
[28] = tested on: normal primary NK cells, pool 3 (3 donors) (IL-2 2.5 ng/mL); assay: as above; details: 72 h

CC/C(=C(\c1ccccc1)c1ccc(OCCN(C)C)cc1)c1ccccc1 [Tamoxifen] (max concentration tested 10000 nM)
percent inhibition of viability [%]
Details	1 nM	10 nM	100 nM	1000 nM	10000 nM
[1]	-7.94	-6.09	-3.11	5.82	37.2
[2]	1.51	5.51	6.94	12.4	58.1
[3]	2.26	1.26	1.8	5.99	14.7
[4]	-0.42	-4.09	3.87	8.65	100
[5]	-5.57	-6.4	1.61	13.7	44.6
[6]	-11.7	-1.59	-5.3	2.31	75.2
[7]	-7.45	-5.92	-3.79	2.63	33.2
[8]	-6.42	-9.93	0.08	21.2	73.4
[9]	-6.58	-17.5	-11.6	-6.09	51.8
[10]	-0.53	-2.4	0.91	3.43	58.4
[11]	1.45	8.11	7.67	12.3	89.6
[12]	2.3	22	15.1	20.6	90.1
[13]	-3.62	2.15	-3.66	4.91	68.8
[14]	-1.03	0.09	5.67	-1.54	30.3

Details	drug sensitivity score
[15]	2.77
[16]	5.15
[17]	0.37
[18]	6.93
[19]	4.33
[20]	4.46
[21]	1.92
[22]	7.22
[23]	2.32
[24]	3.65
[25]	7.04
[26]	8.03
[27]	4.53
[28]	1.21

CC/C(=C(\c1ccc(O)cc1)c1ccc(OCCN(C)C)cc1)c1ccccc1 [4-hydroxytamoxifen] (max concentration tested 10000 nM)
percent inhibition of viability [%]
Details	1 nM	10 nM	100 nM	1000 nM	10000 nM
[1]	-7.32	-3.75	-0.57	7.65	64
[2]	7.02	-0.93	4.62	16.8	79.2
[3]	-4.59	-0.5	3.38	9.15	71.8
[4]	7.22	10.1	14.3	5.63	102
[5]	-2.07	1.6	5.77	21.8	55.9
[6]	3.77	-3.77	6.43	2.65	103
[7]	-2.09	3.5	7.72	7.44	66.8
[8]	8.86	-6.55	2.97	4.58	77.8
[9]	-1.81	-16.4	0.89	-17.1	93.9
[10]	3.34	-0.32	-0.38	9.38	93.1
[11]	-13	0.38	-1.85	-2.34	75.4
[12]	-6.81	0.21	-12.3	-11.9	88.8
[13]	-4	-6.91	4.61	4.67	80.2
[14]	-0.81	-2.52	-1.24	3.05	49.3

Details	drug sensitivity score
[15]	4.78
[16]	7.09
[17]	5.5
[18]	6.52
[19]	5.42
[20]	6.14
[21]	4.91
[22]	4.98
[23]	4.28
[24]	6.69
[25]	3.97
[26]	4.19
[27]	5.13
[28]	3.03
